Data published in patent publication US5519021A, “Benzoxazinones as inhibitors of HIV reverse transcriptase” (priority 1995, dated 1996).
Like-named read-outs stand apart in the source and are kept apart here.

Columns and labels:
[1] = molecular target: T1, recombinant HIV reverse transcriptase (HIV RTR) (Human immunodeficiency virus type 1 group M subtype B, UniProt P04585); assay: Reverse transcriptase assay (wild type); assay type: biochemical, HIV-1; details: wild-type RT, read-out: IC*50 wt
T1 construct: recombinant HIV reverse transcriptase (HIV RTR); made in house; host or cells: E. coli
Procedure: (§1) The assay measures the incorporation of tritiated deoxyguanosine monophosphate by recombinant HIV reverse transcriptase (HIV RTR) (or other RT) into acid-precipitable cDNA at the Km values of dGTP and poly r(C).cndot.oligo d(G)12-18.
(§2) The assays were carried out in 55 mM Tris (pH 8.2)-30 mM KCl-30 mM MgCl2 -1 mM dithiothreitol-20 μg of rC:dG 12-18 (Pharmacia) per ml-8 mM [^3 H]dGTP (New England Nuclear)-0.01% Triton X-100-50 mM ethylene glycol-bis(β-amino-ethyl ether)-N,N,N',N'-tetraacetic acid (EGTA)-1 mg of bovine serum albumin per ml. After 60 min of incubation at 37° C., acid-precipitable material was collected onto glass fiber filters by using a semiautomatic cell harvester. Bacterial cell extracts containing RT were diluted to within the linear range of the assay, and activity was determined in the presence and absence of inhibitor. Purified HIV-1 RT heterodimer produced in E. coli also served as a control.

A17 RT = molecular target: T2, A17 RT (Human immunodeficiency virus type 1 group M subtype B, UniProt P04585, K690N/Y768C); assay: biochemical; parameters: species or system HIV-1
T2 construct: A17 RT was employed in the assay; made in house; host or cells: bacteria
Procedure: as §1, §2
For the double mutant assay (dm), A17 RT was employed in the assay. […] Results are measured as IC50 dm in nanomoles/liter.

CCC1(CC)OC(=S)Nc2ccc(Cl)cc21 [Compound 45]
IC50 ([1]; Table II): 560 nM | IC50 (A17 RT): > 300000 nM

O=C1Nc2ccc(Cl)cc2C(CCCCl)(C(F)(F)F)O1 (stereo not drawn) [Compound 14]
IC50 ([1]; Table I): 130 nM | IC50 (A17 RT): 65000 nM

CCCC1(C2CCCC2)OC(=S)Nc2ccc(Cl)cc21 (stereo not drawn) [Compound 41]
IC50 ([1]; Table II): 1400 nM | IC50 (A17 RT): > 300000 nM

COCC#CC1(C2CC2)OC(=O)Nc2ccc(Cl)cc21 (stereo not drawn) [Compound 30]
IC50 ([1]; Table I): 410 nM | IC50 (A17 RT): 3000 nM

CCCC1(C2CC2)OC(=S)Nc2ccc(Cl)cc21 (stereo not drawn) [Compound 40]
IC50 ([1]; Table II): 48 nM | IC50 (A17 RT): 29000 nM

CCCC1(c2ccccc2)OC(=S)Nc2ccc(Cl)cc21 (stereo not drawn) [Compound 43]
IC50 ([1]; Table II): 610 nM

O=C1Nc2ccc(Cl)cc2C(CCc2ccccc2)(C(F)(F)F)O1 (stereo not drawn) [Compound 22]
IC50 ([1]; Table I): 55 nM | IC50 (A17 RT): 3650 nM

C#CC1(c2ccccc2)OC(=O)Nc2ccc(Cl)cc21 (stereo not drawn) [Compound 35]
IC50 ([1]; Table I): 650 nM | IC50 (A17 RT): > 300000 nM

CCC1(C2CC2)OC(=S)Nc2ccc(Cl)cc21 (stereo not drawn) [Compound 39]
IC50 ([1]; Table II): 510 nM | IC50 (A17 RT): > 300000 nM

O=C1Nc2ccc(Cl)cc2C(C#Cc2ccccc2)(C(F)(F)Cl)O1 (racemic) [Compound 5, (+/-) 4-(1-Chloro-1,1-difluoromethyl)-4-(2-phenylethynyl)-6-chloro-1,4-dihydro-2H-3,1-benzoxazin-2-one]
IC50 ([1]; Table I): 12 nM | IC50 (A17 RT): 350 nM

C=CC1(C(F)(F)F)OC(=O)Nc2ccc(Cl)cc21 (stereo not drawn) [Compound 23]
IC50 ([1]; Table I): 1300 nM | IC50 (A17 RT): > 30000 nM

CCC1(c2ccccc2)OC(=O)Nc2ccc(Cl)cc21 (stereo not drawn) [Compound 33]
IC50 ([1]; Table I): 300 nM

CN(C)CC#CC1(C2CC2)OC(=O)Nc2ccc(Cl)cc21 (stereo not drawn) [Compound 31]
IC50 ([1]; Table I): 410 nM | IC50 (A17 RT): 4250 nM

CCCC1(CC)OC(=O)Nc2ccc(Cl)cc21 (stereo not drawn) [Compound 36]
IC50 ([1]; Table I): 52 nM | IC50 (A17 RT): > 300000 nM

S=C1Nc2ccc(Cl)cc2C(C2CC2)(C2CC2)O1 [Compound 38]
IC50 ([1]; Table II): 136 nM | IC50 (A17 RT): > 300000 nM

C#CC1(CCC)OC(=O)Nc2ccc(Cl)cc21 (stereo not drawn) [Compound 29]
IC50 ([1]; Table I): 1900 nM | IC50 (A17 RT): > 100000 nM

O=C1Nc2ccc(Cl)cc2C(C#Cc2ccccc2[N+](=O)[O-])(C(F)(F)F)O1 (stereo not drawn) [Compound 6]
IC50 ([1]; Table I): 1700 nM | IC50 (A17 RT): 19000 nM

O=C1Nc2ccc(Cl)cc2C(c2ccccc2)(C(F)(F)F)O1 (stereo not drawn) [Compound 20]
IC50 ([1]; Table I): 145 nM | IC50 (A17 RT): 100000 nM

CCCC1(C(C)(C)C)OC(=O)Nc2ccc(Cl)cc21 (stereo not drawn) [Compound 37]
IC50 ([1]; Table I): 5300 nM | IC50 (A17 RT): > 100000 nM

S=C1Nc2ccc(Cl)cc2C(c2ccccc2)(C2CC2)O1 (stereo not drawn) [Compound 46]
IC50 ([1]; Table II): 41 nM | IC50 (A17 RT): > 300000 nM

C=CCC1(C(F)(F)F)OC(=O)Nc2ccc(Cl)cc21 (stereo not drawn) [Compound 25]
IC50 ([1]; Table I): 220 nM | IC50 (A17 RT): > 100000 nM

COc1ccc(C#CC2(C(F)(F)F)OC(=O)Nc3ccc(Cl)cc32)cc1 (stereo not drawn)
IC50 ([1]; Table I): 58 nM | IC50 (A17 RT): 4100 nM

O=C1Nc2ccc(Cl)cc2C(C#CCN2CCCC2)(C(F)(F)F)O1 (racemic) [Compound 7, (+/-) 6-Chloro-4-(1,1,1-trifluoromethyl)-4-[(3-(1-pyrrolidinyl))-1-propynyl] -1,4-dihydro-2H-3,1-benzoxazin-2-one]
IC50 ([1]; Table I): 91 nM | IC50 (A17 RT): 3460 nM

COC(=O)/C=C(/OC)C1(C(F)(F)F)OC(=O)Nc2ccc(Cl)cc21 (stereo not drawn) [Compound 13]
IC50 ([1]; Table I): 390 nM | IC50 (A17 RT): 100000 nM

CCC1(C(F)(F)F)OC(=O)Nc2ccc(Cl)cc21 (stereo not drawn) [Compound 17]
IC50 ([1]; Table I): 2300 nM | IC50 (A17 RT): > 100000 nM

CCC1(CC)OC(=O)Nc2ccc(Cl)cc21 [Compound 34]
IC50 ([1]; Table I): 16500 nM | IC50 (A17 RT): > 300000 nM

O=C1Nc2ccc(Cl)cc2C(Sc2ccccc2)(C(F)(F)F)O1 (stereo not drawn) [Compound 21]
IC50 ([1]; Table I): 860 nM | IC50 (A17 RT): 125000 nM

CCCC1(c2ccccc2)OC(=O)Nc2ccc(Cl)cc21 (stereo not drawn) [Compound 32]
IC50 ([1]; Table I): 5400 nM

CCCCC1(c2ccccc2)OC(=S)Nc2ccc(Cl)cc21 (stereo not drawn) [Compound 42]
IC50 ([1]; Table II): 1450 nM
